Source: publication PMC3159548 (Biochemical pharmacology, 2011)
Values joined by “and” are separate entries in the source; they are usually repeats but may differ in a detail not shown here. Identical values can stand only once. Counter-ions that a name gives are not always drawn. Like-named read-outs stand apart in the source and are kept apart here.

Assays:
CYP2C8.1 [1] = target: T1, CYP2C8.1 (Homo sapiens, UniProt P10632); conditions: for Clint: kcat/Km
T1 sequence (P10632 1-490): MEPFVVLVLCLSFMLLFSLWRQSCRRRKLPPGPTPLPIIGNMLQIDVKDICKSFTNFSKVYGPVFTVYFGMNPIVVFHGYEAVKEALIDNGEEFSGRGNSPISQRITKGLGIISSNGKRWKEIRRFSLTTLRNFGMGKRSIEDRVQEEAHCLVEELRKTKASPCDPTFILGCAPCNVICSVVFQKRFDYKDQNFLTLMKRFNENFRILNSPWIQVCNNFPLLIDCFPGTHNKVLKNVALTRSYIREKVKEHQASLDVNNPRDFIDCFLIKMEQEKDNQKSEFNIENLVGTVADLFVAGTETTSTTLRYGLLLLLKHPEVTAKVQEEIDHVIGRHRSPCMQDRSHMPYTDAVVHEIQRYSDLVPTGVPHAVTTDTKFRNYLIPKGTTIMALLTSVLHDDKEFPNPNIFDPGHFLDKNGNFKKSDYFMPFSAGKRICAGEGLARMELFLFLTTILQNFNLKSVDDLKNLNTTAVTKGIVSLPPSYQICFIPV

CYP2C8.3 [2] = target: T2, CYP2C8.3 (Homo sapiens, UniProt P10632, K399R/R139K)
T2 sequence (P10632 1-490 R139K/K399R): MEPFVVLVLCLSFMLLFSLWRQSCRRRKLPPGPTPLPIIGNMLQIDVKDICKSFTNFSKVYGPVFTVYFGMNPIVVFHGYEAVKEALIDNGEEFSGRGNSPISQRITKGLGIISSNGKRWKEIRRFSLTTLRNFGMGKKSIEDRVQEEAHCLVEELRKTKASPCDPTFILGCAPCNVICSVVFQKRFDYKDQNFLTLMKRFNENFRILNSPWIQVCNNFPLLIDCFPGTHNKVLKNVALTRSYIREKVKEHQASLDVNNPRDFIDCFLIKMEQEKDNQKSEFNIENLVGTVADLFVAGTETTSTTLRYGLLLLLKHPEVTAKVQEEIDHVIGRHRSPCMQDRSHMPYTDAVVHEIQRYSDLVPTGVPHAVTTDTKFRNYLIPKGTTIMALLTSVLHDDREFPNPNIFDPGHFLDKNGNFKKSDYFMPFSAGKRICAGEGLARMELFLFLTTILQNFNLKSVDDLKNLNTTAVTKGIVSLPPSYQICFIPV

CYP2C8.3 [3] = target: T2, CYP2C8.3; conditions: for Clint: kcat/Km
CYP2C8.3 [4] = target: T2, CYP2C8.3; conditions: absence of cytochrome b5 in the reconstitution system; CPR:CYP2C8 2:1
CYP2C8 = conditions: excess of cytochrome b5 (up to 10:1)
CYP2C8.3 [5] = target: T2, CYP2C8.3; assay: Equilibrium spectral binding of ligands and redox cofactors to purified CYP2C8.3; conditions: for % change in Bmax, first binding event / % change in Bmax, second binding event / % change in Bmax, redox partner binding: CYP2C8.3 in comparison to CYP2C8.1; for Kd: read-out: KD of redox partner, spectral binding of redox partner to CYP2C8.3
[6] = target: T3, P450 reductase - CYP2C8.3 complex (Homo sapiens, UniProt P10632, K399R/R139K); conditions: probe reaction of each substrate
T3 sequence (P10632 1-490 R139K/K399R): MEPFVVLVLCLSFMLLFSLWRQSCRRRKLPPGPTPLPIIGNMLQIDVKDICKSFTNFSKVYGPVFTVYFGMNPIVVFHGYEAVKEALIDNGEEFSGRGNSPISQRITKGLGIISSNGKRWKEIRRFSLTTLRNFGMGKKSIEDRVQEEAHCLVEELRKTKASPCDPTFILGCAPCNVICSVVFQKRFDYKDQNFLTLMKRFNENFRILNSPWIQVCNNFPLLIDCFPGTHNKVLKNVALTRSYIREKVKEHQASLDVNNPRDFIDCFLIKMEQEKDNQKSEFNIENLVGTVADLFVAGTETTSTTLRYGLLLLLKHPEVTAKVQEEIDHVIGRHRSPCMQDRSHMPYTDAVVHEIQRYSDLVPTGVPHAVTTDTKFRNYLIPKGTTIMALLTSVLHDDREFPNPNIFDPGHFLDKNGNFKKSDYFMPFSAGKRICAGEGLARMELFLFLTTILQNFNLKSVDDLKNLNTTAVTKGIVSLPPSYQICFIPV

CYP2C8.1 [7] = target: T1, CYP2C8.1; conditions: ref [8], cited from earlier work; for Clint: kcat/Km
CYP2C8.3 [8] = target: T2, CYP2C8.3; conditions: ref [8], cited from earlier work; for Clint: kcat/Km
CYP2C8.1 [9] = target: T1, CYP2C8.1; assay: Equilibrium spectral binding of ligands and redox cofactors to purified CYP2C8.1; conditions: read-out: KD of redox partner; spectral binding of redox partner to CYP2C8.1
[10] = substrate: CC(=O)O[C@H]1C(=O)[C@@]2(C)[C@H]([C@H](OC(=O)c3ccccc3)[C@]3(O)C[C@H](OC(=O)[C@H](O)[C@@H](NC(=O)c4ccccc4)c4ccccc4)C(C)=C1C3(C)C)[C@]1(OC(C)=O)CO[C@@H]1C[C@@H]2O
[11] = substrate: CCN(CC)Cc1cc(Nc2ccnc3cc(Cl)ccc23)ccc1O
[12] = substrate: CN(CCOc1ccc(CC2SC(=O)NC2=O)cc1)c1ccccn1
[13] = substrate: CCN(CC)Cc1cc(Nc2ccnc3cc(Cl)ccc23)ccc1O; remark: listed apart in the source
[14] = substrate: CN(CCOc1ccc(CC2SC(=O)NC2=O)cc1)c1ccccn1; remark: listed apart in the source
[15] = CER hydroxylation (M23 formation)

`CN(CCOc1ccc(CC2SC(=O)NC2=O)cc1)c1ccccn1` (centres unmarked) [RG, rosiglitazone] gave a Clint (CYP2C8.1 [1]; RG N-de-methylation) of 0.13 µM⁻¹ min⁻¹, a Clint (CYP2C8.1 [1]; RG p-hydroxylation) of 0.11 µM⁻¹ min⁻¹ and a Ki (CYP2C8.3 [2]) of 150 µM. It also gave a Clint (CYP2C8.3 [3]; RG N-de-methylation) of 0.33 µM⁻¹ min⁻¹ and a Clint (CYP2C8.3 [3]; RG p-hydroxylation) of 0.29 µM⁻¹ min⁻¹.

For `CC(=O)O[C@H]1C(=O)[C@@]2(C)[C@H]([C@H](OC(=O)c3ccccc3)[C@]3(O)C[C@H](OC(=O)[C@H](O)[C@@H](NC(=O)c4ccccc4)c4ccccc4)C(C)=C1C3(C)C)[C@]1(OC(C)=O)CO[C@@H]1C[C@@H]2O` [PAC, paclitaxel], the substrate inhibition (CYP2C8.1 [1]; CYP2C8.1) was “negligible”, the Ki (CYP2C8.3 [2]) was 103 µM and the “activity of CYP2C8.3 compared to CYP2C8.1” value (CYP2C8.3 [4]) was “less active”. For the same molecule, the “inhibition of CYP-activity by cytochrome b5” value (CYP2C8) was “strong inhibition”, the “fold higher Clint (kcat/Km) for CYP2C8.3 compared to CYP2C8.1” value (CYP2C8.3 [3]; DEAQ formation, p-hydroxy and N-de-methyl RG, PAC 6α-hydroxylation) was 1.5 fold and the Clint (CYP2C8.3 [3]; PAC 6α-hydroxylation) was 0.16 µM⁻¹ min⁻¹. The “% change in Bmax, first binding event” value (CYP2C8.3 [5]) was “+79%”, the “% change in Bmax, second binding event” value (CYP2C8.3 [5]) was −14% and the “decrease of Km, red of CYP2C8.3 in comparison to CYP2C8.1” value [6] was ~7 fold.

In the case of `COCc1c(C(C)C)nc(C(C)C)c(/C=C/[C@@H](O)C[C@@H](O)CC(=O)O)c1-c1ccc(F)cc1` [CER, (3R,5S,6E)-7-[4-(4-Fluorophenyl)-5-(methoxymethyl)-2,6-bis(1-methylethyl)-3-pyridinyl]-3,5-dihydroxy-6-heptenoic Acid Sodium Salt], the Clint (CYP2C8.1 [7]; CER O-demethylation) is listed as 0.024 µM⁻¹ min⁻¹, the Km (CYP2C8.1 [7]; CER O-demethylation) is listed as 24 ± 3 µM and the kcat (CYP2C8.1 [7]; CER O-demethylation) is listed as 0.57 ± 0.02 nmol nmol P450^−1 min^−1. The Km (CYP2C8.1 [7]; [15]) was 23 ± 2 µM, the kcat (CYP2C8.1 [7]; [15]) was 0.22 ± 0.01 nmol nmol P450^−1 min^−1 and the Clint (CYP2C8.1 [7]; CER hydroxylation) was 0.0096 µM⁻¹ min⁻¹. For the same molecule, the Clint (CYP2C8.3 [8]; CER O-demethylation) was 0.11 µM⁻¹ min⁻¹, the Km (CYP2C8.3 [8]; CER O-demethylation) was 13 ± 2 µM and the kcat (CYP2C8.3 [8]; CER O-demethylation) was 1.47 ± 0.06 (**) nmol nmol P450^−1 min^−1. For the same molecule, the Km (CYP2C8.3 [8]; [15]) was 13 ± 2 µM, the kcat (CYP2C8.3 [8]; [15]) was 0.61 ± 0.03 (**) nmol nmol P450^−1 min^−1 and the Clint (CYP2C8.3 [8]; CER hydroxylation) was 0.047 µM⁻¹ min⁻¹. For the same molecule, the “inhibition of CYP-activity by cytochrome b5” value (CYP2C8) was “less evident”, the “% change in Bmax, first binding event” value (CYP2C8.3 [5]) was “+45%” and the “% change in Bmax, second binding event” value (CYP2C8.3 [5]) was “+533%”. The “decrease of Km, red of CYP2C8.3 in comparison to CYP2C8.1” value [6] was “did not vary”.

B1: CPR: Rat cytochrome P450 reductase, expressed; redox partner of CYP2C8 (protein, UniProt P00388 2-678, looked up)
NADPH--cytochrome P450 …: GDSHEDTSATMPEAVAEEVSLFSTTDMVLFSLIVGVLTYWFIFRKKKEEIPEFSKIQTTAPPVKESSFVEKMKKTGRNIIVFYGSQTGTAEEFANRLSKDAHRYGMRGMSADPEEYDLADLSSLPEIDKSLVVFCMATYGEGDPTDNAQDFYDWLQETDVDLTGVKFAVFGLGNKTYEHFNAMGKYVDQRLEQLGAQRIFELGLGDDDGNLEEDFITWREQFWPAVCEFFGVEATGEESSIRQYELVVHEDMDVAKVYTGEMGRLKSYENQKPPFDAKNPFLAAVTANRKLNQGTERHLMHLELDISDSKIRYESGDHVAVYPANDSALVNQIGEILGADLDVIMSLNNLDEESNKKHPFPCPTTYRTALTYYLDITNPPRTNVLYELAQYASEPSEQEHLHKMASSSGEGKELYLSWVVEARRHILAILQDYPSLRPPIDHLCELLPRLQARYYSIASSSKVHPNSVHICAVAVEYEAKSGRVNKGVATSWLRAKEPAGENGGRALVPMFVRKSQFRLPFKSTTPVIMVGPGTGIAPFMGFIQERAWLREQGKEVGETLLYYGCRRSDEDYLYREELARFHKDGALTQLNVAFSREQAHKVYVQHLLKRDREHLWKLIHEGGAHIYVCGDARNMAKDVQNTFYDIVAEFGPMEHTQAVDYVKKLMTKGRYSLDVWS
In the case of B1, the Kd (CYP2C8.1 [9]) is reported as 0.0294 ± 0.0002 µM, the “% change in Bmax, redox partner binding” value (CYP2C8.3 [5]) is reported as “+76%” and the Kd (CYP2C8.3 [5]) is reported as 0.0207 ± 0.0002 µM.

B2: Cytochrome b5: expressed cytochrome b5; redox partner of CYP2C8 (protein, UniProt P00167 2-134, looked up)
Cytochrome b5: AEQSDEAVKYYTLEEIQKHNHSKSTWLILHHKVYDLTKFLEEHPGGEEVLREQAGGDATENFEDVGHSTDAREMSKTFIIGELHPDDRPKLNKPPETLITTIDSSSSWWTNWVIPAISAVAVALMYRLYMAED
For B2, the Kd (CYP2C8.1 [9]) was 0.0344 ± 0.0004 µM, the “% change in Bmax, redox partner binding” value (CYP2C8.3 [5]) was “+298%” and the Kd (CYP2C8.3 [5]) was 0.0168 ± 0.0003 µM.

B3: CYP2C8.1 (Homo sapiens) (protein)
chain: MEPFVVLVLCLSFMLLFSLWRQSCRRRKLPPGPTPLPIIGNMLQIDVKDICKSFTNFSKVYGPVFTVYFGMNPIVVFHGYEAVKEALIDNGEEFSGRGNSPISQRITKGLGIISSNGKRWKEIRRFSLTTLRNFGMGKRSIEDRVQEEAHCLVEELRKTKASPCDPTFILGCAPCNVICSVVFQKRFDYKDQNFLTLMKRFNENFRILNSPWIQVCNNFPLLIDCFPGTHNKVLKNVALTRSYIREKVKEHQASLDVNNPRDFIDCFLIKMEQEKDNQKSEFNIENLVGTVADLFVAGTETTSTTLRYGLLLLLKHPEVTAKVQEEIDHVIGRHRSPCMQDRSHMPYTDAVVHEIQRYSDLVPTGVPHAVTTDTKFRNYLIPKGTTIMALLTSVLHDDKEFPNPNIFDPGHFLDKNGNFKKSDYFMPFSAGKRICAGEGLARMELFLFLTTILQNFNLKSVDDLKNLNTTAVTKGIVSLPPSYQICFIPV
In the case of B3, the Km [10] is reported as 3.7 ± 0.6 µM, the kcat [10] is reported as 0.00483 s⁻¹ and the kcat/Km [10] is reported as 1830 M⁻¹ s⁻¹. The Km [11] was 3.0 ± 0.4 µM, the kcat [11] was 0.095 ± 0.00333 s⁻¹ and the kcat/Km [11] was 31700 M⁻¹ s⁻¹. The Km [12] was 4.0 ± 0.8 µM and 2.9 ± 0.6 µM.

B4: CYP2C8.3 (Homo sapiens; K399R/R139K) (protein)
chain: MEPFVVLVLCLSFMLLFSLWRQSCRRRKLPPGPTPLPIIGNMLQIDVKDICKSFTNFSKVYGPVFTVYFGMNPIVVFHGYEAVKEALIDNGEEFSGRGNSPISQRITKGLGIISSNGKRWKEIRRFSLTTLRNFGMGKKSIEDRVQEEAHCLVEELRKTKASPCDPTFILGCAPCNVICSVVFQKRFDYKDQNFLTLMKRFNENFRILNSPWIQVCNNFPLLIDCFPGTHNKVLKNVALTRSYIREKVKEHQASLDVNNPRDFIDCFLIKMEQEKDNQKSEFNIENLVGTVADLFVAGTETTSTTLRYGLLLLLKHPEVTAKVQEEIDHVIGRHRSPCMQDRSHMPYTDAVVHEIQRYSDLVPTGVPHAVTTDTKFRNYLIPKGTTIMALLTSVLHDDREFPNPNIFDPGHFLDKNGNFKKSDYFMPFSAGKRICAGEGLARMELFLFLTTILQNFNLKSVDDLKNLNTTAVTKGIVSLPPSYQICFIPV
In the case of B4, the Km [10] is reported as 4.7 ± 0.7 (−) µM, the kcat [10] is reported as 0.0127 s⁻¹ and the kcat/Km [10] is reported as 2670 M⁻¹ s⁻¹. The Km [13] was 7.5 ± 0.5 µM, the kcat [13] was 0.497 ± 0.0117 s⁻¹ and the kcat/Km [13] was 66700 M⁻¹ s⁻¹. The Km [14] was 10.2 ± 0.9 µM and 8.0 ± 0.6 µM.
